The values that follow come from US7491835B2, “Prodrugs of amino acids with affinity for the α2δ-protein” (Pfizer Inc, priority 2003, dated 2009).

One data set is described as follows: in vitro. Conditions: human, Caco-2. The protocol: (§1) Mannitol was used as a negative marker since it appears to be absorbed through the paracellular rather than the transcellular pathway. Cell transport, and efflux studies were conducted with Caco-2 cells grown on Snapwells between 22 to 28 days postseeding. Typically, 10 mM MES buffer (pH 6.5) with 5 mM KCl, 135 mM NaCl, 1.8 mM CaCl2, and 5 mM D-glucose was used for the AP side and 10 mM MOPS (pH 7.4) with 5 mM KCl, 132.5 mM NaCl, 1.8 mM CaCl2, and 5 mM D-glucose was used for the BL side. After washing the monolayers, drug-free media at the appropriate pH (pH 7.4 or 6.5) were first added to both compartments to allow the cells to equilibrate for approximately 15 min at 37° C. Transport studies were then conducted using 1.5 mL of transport media in the apical side and 2.5 mL in the basolateral side. The donor solution containing the probe compound was added to either the apical or basolateral compartment. Plates were placed in a shaking incubator (Boekel Scientific, Feasterville, Pa.) at 37° C. during the experiments. Transport in both apical-to-basolateral (A-to-B) and basolateral-to-apical (B-to-A) directions was measured for each drug. Aliquots were removed from the nondosing compartment at predetermined time points and replaced with fresh medium to maintain a constant volume. During studies with radiolabeled compounds, 100 uL samples were taken at each time point. The apparent permeability coefficients (Papp) were calculated using the following equation: Papp=dQ/dtX1/CoX1/A, where dQ/dt is the permeability rate, Co is the initial concentration in the donor compartment, and A is the surface area of the membrane. Flux rates (dQ/dt×1/A) were calculated by plotting the amount transported per unit area as a function of time and determining the slope of the line using linear regression.

Data set [1] can be described thus: Vogel conflict model of anxiety. The class given is in vivo. The following applies: 30 mg/kg, PO. From the text: The In vivo activity of compounds of this invention can be determined in animal models of hyperalgesia (See Sluka, K., et al. 2001, “Unilateral Intramuscular Injections Of Acidic Saline Produce A Bilateral, Long-Lasting Hyperalgesia”, Muscle Nerve 24: 37-46; Dixon, W., 1980, “Efficient analysis of experimental observations”. Ann Rev Pharmacol Toxicol 20:441-462; Randall L. O. and Selitto J. J., “A Method For Measurement Of Analgesic Activity On Inflamed Tissue,” Arch. Int. Pharmacodyn, 1957;4:409-419; Hargreaves K., Dubner R., Brown F., Flores C., and Joris J. “A New And Sensitive Method For Measuring Thermal Nociception In Cutaneous Hyperalgesia”. Pain. 32:77-88, 1988.), anxiety (Vogel J. R., Beer B., and Clody D. E., “A Simple And Reliable Conflict Procedure For Testing Anti-Anxiety Agents”, Psychopharmacologia 21:1-7, 1971),
The In vivo activity of a compound of this invention was determined in an animal model of anxiety as set forth in Vogel J R, Beer B., and Clody D E, “A Simple And Reliable Conflict Procedure For Testing Anti-Anxiety Agents”, Psychopharmacologia 21:1-7, 1971).

A further data set concerns Caco-2 cells. Nature of the data set: Caco-2 cell transport and efflux (permeability) study. The protocol: as §1
A general note: Passage across Caco-2 layers is used to estimate intestinal permeability.

By Papp A→B is commonly meant the apparent permeability from the apical to the basolateral side of a cell layer. Low readings indicate slow passage, high ones fast passage. For orientation: Papp B→A means how fast a substance crosses the layer from the basolateral side. In the data set “in vitro”, `COCCc1ccc(OCC(O)CNC(C)C)cc1` (stereo not drawn) [Metoprolol] had an apical-to-basolateral permeability (Papp A→B) of 8.74 ×10⁻⁶ cm/s and a basolateral-to-apical permeability (Papp B→A) of 20.3 ×10⁻⁶ cm/s.
`CCC[C@@H](C)C[C@H](CNC(=O)[C@@H](N)CC(C)C)CC(=O)O` [3S-[(2S-Amino-4-methyl-pentanoylamino)-methyl]-5R-methyl-octanoic acid]: the “Anxiolytic Activity, percent reference activity compared to pregabalin” value in data set [1] amounted to 138.10%.
Turning to `CCCC[C@@H](C)C[C@H](CNC(=O)[C@@H](N)CC(C)C)CC(=O)O` [3S-[(2S-Amino-4-methyl-pentanoylamino)-methyl]-5R-methyl-nonanoic acid], in the data set on Caco-2 cells (Caco-2, 10 uM, concluded from ratio B to A/A to B), the Substrate for efflux result is “unlikely to be a substrate for efflux”. In addition, the “A to B Peff * 10^−6” value in the data set on Caco-2 cells (Caco-2, apical to basal, apical pH 6.5, basolateral pH 7.4, 37° C.) is 0.74 10^−6. Also, in the data set with Caco-2 cells (concentration of 10 uM), the “Caco-2 permeability, apical to basolateral direction” value turned out to be 0.74 ×10⁻⁶ cm/s.
What is called efflux ratio is a quotient of directional permeabilities that is used to spot active efflux. For the compound `OC[C@@H](O)[C@@H](O)[C@H](O)[C@H](O)CO` [Mannitol], in the data set “in vitro”, the apparent permeability from apical to basolateral (Papp A→B) worked out at 1.81 ×10⁻⁶ cm/s, the basolateral-to-apical permeability (Papp B→A) was 1.41 ×10⁻⁶ cm/s and the efflux ratio was determined as 0.78.
